The values below come from PubChem BioAssay AID1249 (Columbia University Molecular Screening Center, 2008).

A short description of the experiment: cellular cytoskeleton assembly phenotype modulators – imaging, high-content imaging, retest and dose response, confirmation (AID 1249).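 Further: compound exposure lasted 24 h before fixation; plate controls were untreated cells for no effect and reference compound treated cells for full effect.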 As to conditions: cell-based imaging, cytoskeleton assembly phenotype, high content; at 2 µM; stronger effect = higher value.

Active and inactive are the calls of the source. How the calls were made is not given here.

One may read the inhibition as the change of the read-out against control, counted positive when it falls.

For the compound `Cc1ccn2c(NC(=O)c3ccco3)c(-c3ccccc3)nc2c1`, the inhibition was 12.5% (inactive). As for `Cc1nc2ccccc2n1CCCOc1ccccc1`, the figure is 1% (inactive); as for `CCN(Cc1cc2cc(C)ccc2[nH]c1=O)C(=O)c1cccc(OC)c1`, 2.3% (inactive); as for `CCOc1cc(C(=O)OCC(=O)c2c(C)[nH]c3ccccc23)ccc1OCC(=O)N1CCOCC1`, -10.4% (inactive).

Regarding `O=C(Nc1ccccc1)/C(=C\c1ccc2c(c1)OCO2)NC(=O)c1ccco1`, the inhibition is -0.8% (inactive). The same measure for `CCC1=NC(c2ccccc2Cl)N(O)C1(C)C` (stereo unspecified): 7.9% (inactive).

`O=C(CS(=O)c1ccc(C(F)(F)F)cc1[N+](=O)[O-])Oc1ccc(Cl)cc1` (stereo unspecified): the inhibition is 5.2% (inactive). Turning to `Cc1cc(NC(=O)CSc2nc(-c3ccco3)cc(C(F)(F)F)n2)no1`, the inhibition is -2.8% (inactive). As for `Nc1nnnn1/N=C/C(Br)=C/c1ccccc1`, the figure is 1.2% (inactive); as for `Cc1ccc(C(=O)c2cc([N+](=O)[O-])ccc2N2CCOCC2)c(C)c1`, 3.2% (inactive); as for `COc1ccc(-c2cc(=O)[nH]c(NCc3ccccc3)n2)cc1`, -1.7% (inactive).

Regarding `O=Cc1cc2ccccc2nc1SCc1ccc(Cl)cc1`, the inhibition was 8.6% (inactive).

For `CN1CCCCc2c1[nH]c1ccccc1c2=O`, the inhibition is 5.2% (inactive).

As for `Cc1cc(C)cc(OCC(=O)Nc2nonc2NC(=O)COc2cc(C)cc(C)c2)c1`, the inhibition is -12% (inactive). On to `O=C(c1cc(-c2ccncc2)nc2ccc(Br)cc12)N1CCN(c2ccccn2)CC1`, for which the inhibition is -1% (inactive). Take `Nc1c(C(=O)NC2CCCC2)c2nc3ccccc3nc2n1N`: the inhibition was -22.3% (inactive).

In the case of `CC(C)Sc1nc2c(c(=O)n1-c1ccc(F)cc1)SCC2`, the inhibition was -6.3% (inactive). The same measure for `Cc1ccc(-n2c([O-])nc(-[n+]3ccccc3)c2C=O)cc1`: -7.2% (inactive); for `NC(=S)N/N=C/c1ccc(-c2cc(Cl)ccc2Cl)o1`: -7.4% (inactive); for `Nc1cc(=O)nc(SCc2ccccc2)n1Cc1ccco1`: 3.5% (inactive). Regarding `C=C1N2CCC(CC2)C1(O)c1ccccc1C` (stereo unspecified), the inhibition was -0.8% (inactive). The same measure for `CCOc1ccccc1N1CCN(C(=O)c2cccc(-c3ccc(O)cc3)c2)CC1`: 6.2% (inactive); for `COc1ccc(N2CCN(C(=O)CSc3nnc4c(C)cc5cc(C)ccc5n34)CC2)cc1`: 3.6% (inactive); for `CCc1cccc(CC)c1NC(=O)C1SC(=Nc2ccccc2C)C(c2nc3ccccc3s2)=C1N` (stereo unspecified): 5% (inactive). As for `CCOC(=O)C1=C(SCC)c2cc3c(n2C1=O)CCCC3`, the figure is 8.4% (inactive); as for `COc1cccc(C(C#N)N2CCCCC2)c1O` (stereo unspecified), 1.4% (inactive).

Take `Nc1ccc2nc(-c3ccc(N)c(Cl)c3)[nH]c2c1`: the inhibition is 11.4% (inactive). The same measure for `CN(C)c1nc(N(C)C)nc(N(C#N)CCOc2ccccc2)n1`: -6.3% (inactive); for `CC(C)C(=O)Nc1ccc(C(=O)NNC(=O)NC2CCCCC2)cc1`: -9.2% (inactive). In the case of `O=C(CC(c1ccccc1)c1ccccc1)NCC1CCCO1` (stereo unspecified), the inhibition is -0.2% (inactive). For `O=C(OCn1ncc(Br)c(Br)c1=O)c1c(F)cccc1F`, the inhibition is -3.7% (inactive). The same measure for `Cc1cc(C)c(C#N)c(SCc2nc3ccccc3[nH]2)n1`: -5.7% (inactive). With `N/C(Cc1cccs1)=N\OC(=O)COc1ccc(Br)cc1Cl`, the inhibition was -3.7% (inactive).

On to `Oc1ccc(N2CCN(c3ncnc4sc5c(c34)CCC5)CC2)cc1`, for which the inhibition is -5.1% (inactive). The same measure for `O=S(=O)(c1cccs1)N1CCN(CC(O)COc2cccc(Br)c2)CC1` (stereo unspecified): 5.3% (inactive); for `Cc1cc(C)cc(OCCCCCNCCO)c1`: -6.8% (inactive); for `Cc1ccc(S(=O)(=O)Cn2nnnc2C(C(C)C)N2CCN(c3nc4ccccc4s3)CC2)cc1` (stereo unspecified): 4.2% (inactive). With `COc1ccc(Nc2nc(N3CCCC3)nc3ccccc23)c(OC)c1`, the inhibition is -12.3% (inactive). The same measure for `O=C(Nc1cccnc1)c1coc(=O)c2ccccc12`: 8% (inactive).

Consider `O=c1c2ccccc2nnn1CSc1ncnc2ccccc12`, for which the inhibition is -4% (inactive).

As to `Cn1c(CNc2ccccc2O)nc2ccccc21`, the inhibition is 1.8% (inactive). As for `OCCN=C1CCCc2c1[nH]c1ccc(Br)cc21`, the figure is -20.7% (inactive). Consider `CNc1c([N+](=O)[O-])cnn1-c1ccc(Cl)cc1`, for which the inhibition is -10.2% (inactive). Consider `OCCCCNc1cccc2ccccc12`, for which the inhibition is -7.2% (inactive). Consider `O=C(O)C1C2C=CC(O2)C1C(=O)Nc1ccc(S(=O)(=O)Nc2ccccc2)cc1` (stereo unspecified), for which the inhibition is -5.8% (inactive). The same measure for `CCCn1c(SCC(=O)NCc2ccco2)nnc1C(C)C`: -5.7% (inactive). Consider `COc1cccc(CSc2nc3ccccc3cc2C=O)c1`, for which the inhibition is 3.2% (inactive). As for `COc1ccc(-c2nnc(SCC(=O)N3CCCc4ccccc43)o2)cc1OC`, the figure is -16.4% (inactive); as for `CCOC(=O)c1ccc(NS(=O)C23CC4CC(CC(C4)C2)C3)cc1` (stereo unspecified), -10.9% (inactive); as for `COc1cccc(CNC(=O)C(=O)NCC2CCCO2)c1` (stereo unspecified), -16.1% (inactive).

In the case of `Cc1cc(N2CCOCC2)c2c(N)c(C)cc(C)c2n1`, the inhibition was -8.7% (inactive). The same measure for `COc1ccc(C)cc1S(=O)(=O)Nc1cccc(SC)c1`: 3.7% (inactive); for `CCOc1cc(/C=N\NC(=O)Cc2ccccc2)ccc1OCC(=O)Nc1ccc(C)c(C)c1`: -0.8% (inactive); for `O=C(NCc1ccccc1)NC1(C(=O)N2CCCC2)CCCCC1`: 5.3% (inactive). `Clc1ccc2nc(CSc3nc4ccccc4o3)cn2c1`: the inhibition is 14.4% (inactive). The same measure for `C=CCNC(=O)C1CC(=O)N(c2ccc(OCC(=O)Nc3cccc(OC)c3)cc2)C1` (stereo unspecified): -2% (inactive); for `COc1ccc(S(=O)(=O)Nc2nc3n(n2)C(c2ccc(Cl)cc2)CC(=O)N3)cc1` (stereo unspecified): 4.9% (inactive); for `CCCCCCCC(=O)N/N=C(\C)c1cccnc1`: 2.2% (inactive). As for `O=C(Nc1ccc(Oc2ccccc2)cc1)C1CCCN(c2ncccn2)C1` (stereo unspecified), the figure is 11.6% (inactive); as for `COc1ccc(Cl)c(NC(=O)Nc2c(C)n(-c3ccccc3)c(=O)n2C)c1`, 0.8% (inactive); as for `COc1ccc2c(c1)CCc1c(C(=O)N3CC4(C)CC3CC(C)(C)C4)noc1-2` (stereo unspecified), 4.4% (inactive).

On to `COc1ccccc1-n1cnc2cc(C(=O)NCC3CCCO3)ccc21` (stereo unspecified), for which the inhibition is 13.3% (inactive). For `N=C1C(c2nc3ccccc3s2)=C(O)CN1Cc1ccco1`, the inhibition is 5.2% (inactive). As for `CCOC(=O)c1[nH]c(C)c(C(=O)c2ccc(C)cc2)c1C`, the figure is 10.5% (inactive); as for `CCOc1ccc(N2C(=O)CSC2c2ccncc2)cc1` (stereo unspecified), 4.4% (inactive); as for `CCN1C(=O)c2cccc3c(S(=O)(=O)NCc4ccccn4)ccc1c23`, -20.8% (inactive). Consider `Cc1cc(C)cc(OCc2nnc(SCC(=O)N3CCN(c4ccccc4)CC3)o2)c1`, for which the inhibition is -9.6% (inactive). As for `Cc1cc(NC(=O)CSc2nnnn2C)n(-c2ccccc2)n1`, the figure is -7.2% (inactive); as for `S=c1[nH]nc(COc2ccc3c(c2)OCO3)n1-c1ccccc1`, 6.4% (inactive).

Regarding `COc1cc(CNCc2ccco2)ccc1OCc1ccccc1`, the inhibition is -7.5% (inactive).

For the compound `O=C1CC(N2CCN(Cc3ccc4c(c3)OCO4)CC2)C(=O)N1c1ccccc1` (stereo unspecified), the inhibition was -6.6% (inactive). With `O=C(NCc1ccco1)C1CC(=O)N(c2ccc(F)cc2)C1` (stereo unspecified), the inhibition was 2.5% (inactive). As for `COCCNC(=O)C(c1cccs1)N(Cc1cccs1)C(=O)Cn1nnc2ccccc21` (stereo unspecified), the figure is -4.6% (inactive); as for `COc1ccc(CC(=O)Nc2ccc(-c3noc(-c4cccc(OC)c4)n3)cc2)cc1`, 13.6% (inactive). Regarding `Cc1nnc(SCc2cn3ccsc3n2)n(N)c1=O`, the inhibition is -0.8% (inactive). As for `C(=N\Nc1nc2ccccc2s1)/c1cccs1`, the figure is -5.8% (inactive). Turning to `CCc1cccc(CC)c1N(COC)C(=O)Cn1ccccc1=N`, the inhibition was -4.4% (inactive). Take `CCNc1nc(NCC)n2c(SCc3ccc(F)cc3)nnc2n1`: the inhibition is 4.8% (inactive). As for `COC(=O)c1cccc(S(=O)(=O)N(Cc2ccco2)Cc2cc3ccc(OC)cc3[nH]c2=O)c1`, the figure is -3.3% (inactive); as for `Cn1c(SCC(=O)NC2CCCCC2)nnc1-c1cccc(N)c1`, -8.2% (inactive); as for `Cc1ccc(C(=O)NCCCn2ccnc2)cn1`, 1.3% (inactive). As for `O=S(=O)(Nc1ccc(-n2cccc2)cc1)c1ccccc1`, the figure is 0.5% (inactive); as for `O=C1CCCc2c1[nH]c1ccc(Cl)cc21`, -17.2% (inactive). The same measure for `COC(=O)c1ccccc1NC(NC(=O)c1ccco1)C(=O)c1ccc(C)cc1` (stereo unspecified): 2.9% (inactive); for `CCOC(=O)c1cnn(-c2nc3c(C)cccc3s2)c1C`: -1.2% (inactive). Turning to `CCc1nnc(NC(=O)C2c3ccccc3Oc3ccccc32)s1`, the inhibition is 2.3% (inactive). On to `COc1ccccc1-c1cn(S(=O)(=O)c2ccc(C)cc2)nc1N`, for which the inhibition was 7.9% (inactive). The same measure for `CN(Cc1ccccc1)S(=O)(=O)c1ccc(NC(=S)NC(=O)C2CCCC2)cc1`: -1.4% (inactive); for `O=C(COc1ncnc2sccc12)Nc1ccc2c(c1)OCCO2`: 1.1% (inactive). As for `COc1cc(/C=N/Nc2snc(SC)c2C#N)ccc1O`, the figure is -6.6% (inactive).

Take `Cc1ccc(NC(=O)c2oc3c(c2C)C(=O)CC(C)(C)C3)cc1`: the inhibition is -7.9% (inactive).
